{
  "source": "patent US7381748B1",
  "about": "“Compounds and related methods for inhibition of gamma-aminobutyric acid aminotransferase” (Northwestern University, priority 2002, dated 2008)",
  "key": {"[1]": {"biological_target": "T1, GABA-AT (Sus scrofa, UniProt P80147)", "T1 construct": "purchased", "T1 sequence (P80147 29-500)": "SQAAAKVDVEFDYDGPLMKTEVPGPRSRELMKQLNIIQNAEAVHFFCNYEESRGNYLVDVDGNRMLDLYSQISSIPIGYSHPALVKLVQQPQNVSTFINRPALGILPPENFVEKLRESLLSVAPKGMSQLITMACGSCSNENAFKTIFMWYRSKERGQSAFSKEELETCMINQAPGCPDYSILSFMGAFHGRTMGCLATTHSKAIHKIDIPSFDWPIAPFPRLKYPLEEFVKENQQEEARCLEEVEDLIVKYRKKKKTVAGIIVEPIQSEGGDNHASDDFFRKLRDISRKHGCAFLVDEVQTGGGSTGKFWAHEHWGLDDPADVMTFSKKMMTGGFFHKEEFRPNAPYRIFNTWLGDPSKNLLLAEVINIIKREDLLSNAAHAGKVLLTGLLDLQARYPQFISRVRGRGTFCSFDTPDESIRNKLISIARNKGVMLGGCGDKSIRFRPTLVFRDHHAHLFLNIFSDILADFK", "conditions": "cited from earlier work"}, "[2]": {"biological_target": "T1, GABA-AT", "experiment": "Time-dependent inactivation of GABA-AT", "assay_type": "biochemical", "from_the_text": "Fluorine incorporation may also make a corresponding intermediate sufficiently reactive to be trapped by the enzyme. While the cis isomer is shown in Scheme 6.\nThen a secondary plot of half-life versus the reciprocal of inactivator concentration was obtained to determine KI and kinact."}, "[3]": {"biological_target": "T1, GABA-AT", "conditions": "as substrate of GABA-AT; cited from earlier work"}},
  "note": "Structures can show the parent of a compound that is named as a salt. Where two headings read alike, the source gives them in different places.",
  "data": [
    {"smiles": "C=C1C[C@H](C(=O)O)C[C@@H]1N", "note": "[Compound 7, 3β-Amino-4-methylenylcyclopentane-1β-carboxylic acid]", "values": [
      {"measurement": "GABA-AT inactivation (in words)", "setting": "[1]; 2-mercaptoethanol added to the incubation mixture", "value": "no inactivation was observed"},
      {"measurement": "GABA-AT inactivation (in words)", "setting": "[1]; no 2-mercaptoethanol added", "value": "inactivated GABA-AT"}
    ]},
    {"smiles": "NC1CC(C(=O)O)C/C1=C\\F", "note": "[Compound 20, (E)-(1S, 3S)-3-Amino-4-fluoromethylenyl-1-cyclopentanoic acid, hydrochloride salt]", "values": [
      {"measurement": "time-dependent inhibition of GABA-AT (in words)", "setting": "[2]", "value": "potent time-dependent inhibitors of GABA-AT"}
    ]},
    {"smiles": "NC1CC(C(=O)O)C/C1=C/F", "note": "[Compound 22, (Z)-(1S, 3S)-3-Amino-4-fluoromethylenyl-1-cyclopentanoic acid, hydrochloride salt]", "values": [
      {"measurement": "time-dependent inhibition of GABA-AT (in words)", "setting": "[2]", "value": "potent time-dependent inhibitors of GABA-AT"}
    ]},
    {"smiles": "NCCCC(=O)O", "note": "[GABA, γ-aminobutyric acid]", "values": [
      {"measurement": "Km", "setting": "[3]", "value": 2400, "unit": "µM"},
      {"measurement": "kcat", "setting": "[3]", "value": 0.817, "unit": "s⁻¹"}
    ]},
    {"smiles": "C=CC(N)CCC(=O)O", "note": "(stereo not shown) [vigabatrin]", "values": [
      {"measurement": "share of total inactivation accounted for by pathway a (Michael addition)", "setting": "[1]", "value": "70-75%"}
    ]}
  ]
}
